Measured values as given in article PMC10060280, “The influence of cyclooxygenase inhibitors on kynurenic acid production in rat kidney: a novel path for kidney protection?” (Pharmacological Reports, 2023).
Where a name gives a salt, the structure may show the parent alone. Read-outs that look alike come from different tables or passages of the source.

Columns and labels:
[1] = system: KYNA production in rat kidney; assay: KYNA synthesis in rat kidney homogenate in vitro; format: biochemical; conditions: 10 μM L-KYN; for IC50: 2 h, 37 °C, read-out: IC50 of KYNA production inhibition
Procedure: In the first step, after the animals were decapitated, rat kidneys were harvested and immediately put on ice. Afterward whole kidneys were weighed and homogenized in prepared oxygenated Krebs–Ringer buffer at pH 7.4 (1:4; w/v). 100 µL of kidney homogenate was put into test tubes, pre-filled with oxygenated Krebs–Ringer buffer (containing 800 μL in every tube). […] At least six independent kidney samples were used for each experiment in this part of the study. Control samples, instead of the drug solution, contained an equal volume of a drug solvent (50 µL of DMSO or water). The reaction was stopped by adding 1 N HCl (100 μL per sample) on ice. […] Tissues from 14 animals were used in this part of the study. Presented data are shown as mean ± standard deviation (SD). The one-way analysis of variance (one-way ANOVA) followed by Tukey’s multiple comparison test was applied to analyze differences between tested COX inhibitors. The half-maximal inhibitory concentrations values (IC50) were assessed by fitting the experimental data to a four-parameter logistic equation. Statistical analyses were done with the use of GraphPad Prism 6. Values of p < 0.05 were considered to be statistically significant.

KAT I = target: T1, KAT I (Rattus norvegicus, UniProt Q08415); assay: KAT I activity in rat kidney in vitro; format: biochemical; conditions: 2 µM L-KYN; for IC50: read-out: IC50 of KAT I inhibition; for effect on KAT I activity: 1 μM-1 mM drug
T1 construct: kidneys were homogenized in dialysate buffer (1:9; w/v); from tissue; host or cells: rat kidney (dialyzed supernatant of homogenate)
T1 sequence (Q08415 1-423): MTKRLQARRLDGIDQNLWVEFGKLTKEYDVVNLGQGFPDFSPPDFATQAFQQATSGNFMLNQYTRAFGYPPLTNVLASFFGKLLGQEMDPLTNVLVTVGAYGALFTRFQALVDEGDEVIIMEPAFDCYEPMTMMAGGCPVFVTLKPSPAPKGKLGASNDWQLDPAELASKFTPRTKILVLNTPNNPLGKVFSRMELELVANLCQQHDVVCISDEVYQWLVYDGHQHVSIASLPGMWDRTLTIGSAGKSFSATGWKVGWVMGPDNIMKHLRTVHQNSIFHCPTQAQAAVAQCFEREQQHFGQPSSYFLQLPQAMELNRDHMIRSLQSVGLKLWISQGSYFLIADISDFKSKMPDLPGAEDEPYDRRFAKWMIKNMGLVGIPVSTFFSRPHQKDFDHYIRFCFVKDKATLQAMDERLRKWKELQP
Procedure: (§1) KAT I and KAT II activity in rat kidneys in vitro was analyzed based on procedures previously presented in a study by Gramsbergen et al.. […] The homogenate was centrifuged (15,133×g, 15 min) and then collected supernatant was dialyzed against 4 L of the dialysate buffer for 12 h at 8 °C with the use of cellulose membrane dialysis tubing. […] L-KYN concentration used in this analysis was equal to plasma KYN concentration, as reported by […] et al., and was sufficient to obtain appropriate enzymatic activity. The optimal pH was set at 9.5 and 7.0 for KAT I or KAT II activity analysis, respectively. Glutamine (2 mM), a KAT I inhibitor, was added to samples to measure KAT II's activity. The reaction was terminated by moving all samples into the ice-cold bath. Finally, all samples were centrifuged and analyzed by HPLC, as described in the previous section. […] To analyze KAT's activity, kidneys from 14 rats were used. Presented data are shown as mean ± standard deviation (SD). The one-way analysis of variance (one-way ANOVA) followed by Tukey's multiple comparison test was applied to analyze differences between tested COX inhibitors. The half-maximal inhibitory concentrations values (IC50) were assessed by fitting the experimental data to a four-parameter logistic equation. Statistical analyses were done with the use of GraphPad Prism 6. Values of p < 0.05 were considered to be statistically significant.

KAT II = target: T2, KAT II (Rattus norvegicus, UniProt Q64602); assay: KAT II activity in rat kidney in vitro; format: biochemical; conditions: 2 µM L-KYN; for IC50: pH 7.0, 2 mM glutamine, read-out: IC50 of KAT II inhibition
T2 construct: kidneys were homogenized in dialysate buffer (1:9; w/v); from tissue; host or cells: rat kidney (dialyzed supernatant of homogenate)
Procedure: as §1

serum KYNA concentration = system: serum KYNA concentration; set-up: method as in PMID 36271950; conditions: 20 healthy volunteers, acute administration, 5 h after drug administration; cited from earlier work
[2] = system: KYNA content in the rat brain; conditions: cited from earlier work; for KYNA content in the rat brain: after drug administration
animal models of ADPKD = conditions: animal model of ADPKD, cited from earlier work
[3] = highest concentration tested 1 mM
[4] = pH 9.5, highest concentration tested 1 mM

T2 sequence (Q64602 30-425): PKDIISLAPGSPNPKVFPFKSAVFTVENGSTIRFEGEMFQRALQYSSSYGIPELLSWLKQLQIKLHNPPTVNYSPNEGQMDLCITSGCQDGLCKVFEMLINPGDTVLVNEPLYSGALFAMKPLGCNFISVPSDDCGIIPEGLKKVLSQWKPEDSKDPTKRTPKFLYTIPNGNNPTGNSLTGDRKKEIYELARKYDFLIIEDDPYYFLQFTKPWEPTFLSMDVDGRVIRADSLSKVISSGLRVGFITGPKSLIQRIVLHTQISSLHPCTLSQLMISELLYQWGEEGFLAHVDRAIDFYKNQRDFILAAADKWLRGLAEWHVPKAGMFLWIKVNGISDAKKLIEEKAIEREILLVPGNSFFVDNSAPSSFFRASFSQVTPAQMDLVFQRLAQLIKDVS

Work on CS(=O)(=O)Nc1ccc([N+](=O)[O-])cc1Oc1ccccc1 [nimesulide] yielded an IC50 [1] of 473 µM, an IC50 (KAT I; pH 9.5, 2 h, 37 °C) of 128 µM and an IC50 (KAT II; [3]) of over 1000 µM.
In the case of CC(C)Cc1ccc(C(C)C(=O)O)cc1 (stereo not shown) [ibuprofen], the IC50 [1, 3] is reported as over 1000 µM, the “effect on KAT I activity” value (KAT I) is reported as “did not affect the activity of KAT I” and the IC50 (KAT II; [3]) is reported as over 1000 µM. The “serum KYNA concentration” value (serum KYNA concentration) was “increases serum KYNA concentration”.
In the case of CN1C(C(=O)Nc2ccccn2)=C(O)c2ccccc2S1(=O)=O [piroxicam], the IC50 (KAT I; [4]) is reported as over 1000 µM and the IC50 (KAT II; [3]) is reported as over 1000 µM.
Compound Cc1cnc(NC(=O)C2=C(O)c3ccccc3S(=O)(=O)N2C)s1 [meloxicam, meloxicam sodium salt hydrate] has an IC50 [1, 3] of over 1000 µM, an IC50 (KAT I; pH 9.5, 2 h, 37 °C) of 310 µM and an IC50 (KAT II; 2 h, 37 °C) of 155 µM. For the same compound, the “KYNA content in the rat brain” value [2] was “Decreased KYNA content”.
In the case of COc1ccc2cc([C@H](C)C(=O)O)ccc2c1 [naproxen, naproxen sodium], the IC50 [1] is reported as 464 µM, the IC50 (KAT I; [4]) is reported as over 1000 µM and the IC50 (KAT II; 2 h, 37 °C) is reported as 504 µM.
With CC(=O)Nc1ccc(O)cc1 [acetaminophen] the “effect on KYNA production” value ([1]; 1 μM-1 mM drug) was “did not change KYNA production”, the “effect on KAT I activity” value (KAT I) was “did not affect the activity of KAT I” and the “effect on KAT II activity” value (KAT II; 1 μM-1 mM drug) was “not shown to inhibit KAT II activity”.
For CC1=C(CC(=O)O)c2cc(F)ccc2/C1=C\c1ccc([S+](C)[O-])cc1 (stereo not shown) [sulindac], the cysts volume (animal models of ADPKD; nonselective COX inhibition) is listed as “decrease cysts volume”.
In the case of COc1ccc2c(c1)c(CC(=O)O)c(C)n2C(=O)c1ccc(Cl)cc1 [indomethacin], the IC50 [1] is reported as 246 µM, the IC50 (KAT I; pH 9.5, 2 h, 37 °C) is reported as 503 µM and the IC50 (KAT II; 2 h, 37 °C) is reported as 420 µM. For the same compound, the “KYNA content in the rat brain” value [2] was “elevated KYNA levels”.
For Cc1ccc(-c2cc(C(F)(F)F)nn2-c2ccc(S(N)(=O)=O)cc2)cc1 [celecoxib], the cysts volume (animal models of ADPKD; selective COX-2 blockade) is given as “decrease cysts volume”.
For O=C(O)Cc1ccccc1Nc1c(Cl)cccc1Cl [diclofenac, diclofenac sodium salt], the IC50 [1] was 230 µM, the “decrease of KYNA synthesis” value ([1]; concentration not given) was 64% and the IC50 (KAT I; [4]) was over 1000 µM. For the same compound, the IC50 (KAT II; 2 h, 37 °C) was 191 µM, the “KYNA content in the rat brain” value [2] was “elevated KYNA levels” and the “KYNA concentration in the rat brain” value ([2]; following tail ischemia) was “increased KYNA concentration”.
In the case of CC(=O)Oc1ccccc1C(=O)O [acetylsalicylic acid], the IC50 [1, 3] is reported as over 1000 µM, the “effect on KAT I activity” value (KAT I) is reported as “did not affect the activity of KAT I” and the IC50 (KAT II; [3]) is reported as over 1000 µM.
